Source: patent publication US8715714B2, “Uses of rare earth elements for hair improvement” (Micellbio Co., Ltd., priority 2006, dated 2014)
“Also recorded” adds a separate entry of the source.

Columns and labels:
Format in all cases: cell-based
[1] = target: T1, tyrosinase (Mus musculus, UniProt P11344); experiment: Activity of tyrosinase in B16F10 cells; details: 10 μg to 1 pg, versus control group, FIG. 8
T1 sequence (P11344 19-533): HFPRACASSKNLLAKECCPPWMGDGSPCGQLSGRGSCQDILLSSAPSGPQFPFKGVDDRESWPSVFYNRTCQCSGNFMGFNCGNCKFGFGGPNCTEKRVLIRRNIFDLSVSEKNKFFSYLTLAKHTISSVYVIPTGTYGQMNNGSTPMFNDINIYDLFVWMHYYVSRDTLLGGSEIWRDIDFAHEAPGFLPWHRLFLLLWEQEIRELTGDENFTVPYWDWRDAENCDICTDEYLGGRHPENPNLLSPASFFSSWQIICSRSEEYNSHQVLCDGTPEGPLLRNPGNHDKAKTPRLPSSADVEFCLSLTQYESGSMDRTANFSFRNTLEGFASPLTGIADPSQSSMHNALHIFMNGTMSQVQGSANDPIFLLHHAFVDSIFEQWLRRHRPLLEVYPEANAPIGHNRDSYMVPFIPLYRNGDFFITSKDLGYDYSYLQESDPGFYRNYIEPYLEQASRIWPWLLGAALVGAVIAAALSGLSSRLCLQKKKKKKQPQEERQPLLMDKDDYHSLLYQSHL
Protocol: (§1) In order to evaluate the effect of promoting black hair formation, the activity of tyrosinase was measured in Sk-mel-31, a human melanoma cell, and B16F10, a mouse melanoma cell. The cells were cultivated in an incubator at 37° C. (5% CO2 and 60% relative humidity) while maintaining a density of 1×10^6 cells/ml for Sk-mel-31 and 2×10^5 cells/ml for B16F10 in RPMI-1640 medium (containing 1% penicillin-streptomycin and 10% fetal bovine serum). The cells were stabilized in the incubator for 24 hours, and the culture medium containing FBS was replaced by FBS-free RPMI-1640. The cells were treated with mixed rare earth elements of 10 μg, 1 μg, 100 ng, 10 ng, 1 ng, 100 pg, […] and 1 pg, respectively, and individual rare earth elements of 10 ng. In order to measure the activity of tyrosinase, the cells were cultivated for a given time, centrifuged (100×g) for 10 minutes, and harvested. […] The cells were placed in an ice bath for one hour, and centrifuged with 40,000×g at 4° C. for 20 minutes to obtain a cell extract. 130 μl of 5 mM L-DOPA (L-3,4-dihydroxyphenylalanine) and 120 μl of 25 mM MBTH (3-methyl-2-benzothiazolinone hydrazone) were added to 250 μl of an analysis buffer containing 100 mM potassium phosphate (pH 7.1), 4% N,N-dimethylformamide and 0.1% (v/v) Triton X-100, and reacted in a thermostat at 37° C. for 5 minutes, and then, 100 μg of the cell extract was added thereto, and further reacted for 2 hours. Then, 500 μl of 1 M perchloric acid was added thereto and the mixture was centrifuged with 9,000×g at room temperature for 20 minutes. Then, the supernatant was taken and absorbance was measured at 505 nm.

[2] = system: Mouse embryo fibroblasts NIH 3T3; experiment: MTT cell proliferation assay in NIH 3T3 fibroblasts
Protocol: Mouse embryo fibroblasts NIH 3T3 were cultivated in an incubator at 37° C. ([…], 5% CO2 and 60% humidity) while maintaining a density of 2×10^6 or 4×10^6 cells/ml in Dulbecco's modified Eagle's media (DMEM) supplemented with 10% fetal bovine serum (FBS) and 1% penicillin-streptomycin. Cell proliferation was measured by using MTT [3-(3,5-dimethyl-thiazol-2-yl)-2,5-diphenyltetrazolium bromide] assay. For MTT assay, the cells were plated in a 96-well plate at 2×10^3 cells/ml per well, and treated with a culture medium supplemented with 10% FBS. The cells were stabilized in the incubator for 24 hours, the culture medium supplemented with FBS was replaced by FBS-free DMEM, and the cells were treated with mixed rare earth elements of 10 μg, 1 μg, 100 ng, 10 ng, 1 ng, 100 pg, 10 pg and 1 pg, respectively, and individual rare earth elements of 10 ng. Then, the cells were cultivated for a given time, 50 μl per well of MTT (2 mg/l ml sterilized distilled water) was added thereto, and the mixture was reacted for 4 hours. The reaction mixture was treated with DMSO (dimethyl sulfoxide) and shaken for 30 minutes. Absorbance was measured at 540 nm using an ELISA reader (550, Bio-rad).

[3] = system: tyrosinase; experiment: Expression of tyrosinase in Sk-mel-31 cells by Western blotting; details: human melanoma cell line; versus control group; FIG. 9
Protocol: (§2) Cells were cultivated according to the same process as in Experimental Example 6, and centrifuged (100×g) for 10 minutes to harvest the cells. In order to measure the expression of tyrosinase by Western blotting, 100 μg of the cell extract was resolved on 10% SDS-PAGE, transferred to NC, and then, blocked with TBS containing 5% skim milk. Then, it was reacted with a primary antibody diluted to 1:2,500 (monoclonal anti-tyrosine hydroxylase clone Th-2) and a secondary antibody diluted to 1:5,000 (anti-mouse IgG), respectively, and washed with TBS containing 0.2% Tween-20, and then, photosensitized on an X-ray film using an ECL detection kit. Then, OD values were graphed using an image analysis program of LabWork™ (version 4.4.00.0).

[4] = target: T2, tyrosinase (Homo sapiens, UniProt P14679); experiment: Activity of tyrosinase in Sk-mel-31 cells; details: 10 μg to 1 pg, versus control group, FIG. 7
T2 sequence (P14679 19-529): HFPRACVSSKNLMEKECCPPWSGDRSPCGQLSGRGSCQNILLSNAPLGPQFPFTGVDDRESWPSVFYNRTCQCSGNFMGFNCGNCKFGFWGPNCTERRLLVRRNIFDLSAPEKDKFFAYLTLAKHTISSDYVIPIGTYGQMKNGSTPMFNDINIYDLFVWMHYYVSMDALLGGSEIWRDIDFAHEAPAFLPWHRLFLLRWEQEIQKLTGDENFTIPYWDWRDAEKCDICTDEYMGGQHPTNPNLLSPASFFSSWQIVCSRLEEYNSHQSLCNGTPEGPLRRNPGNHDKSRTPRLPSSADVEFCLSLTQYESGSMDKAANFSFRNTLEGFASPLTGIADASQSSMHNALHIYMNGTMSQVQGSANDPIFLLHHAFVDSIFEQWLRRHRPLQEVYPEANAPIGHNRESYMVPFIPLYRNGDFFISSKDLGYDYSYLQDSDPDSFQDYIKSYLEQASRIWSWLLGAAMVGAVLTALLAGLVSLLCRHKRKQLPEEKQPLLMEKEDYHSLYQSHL
Protocol: as §1

[5] = system: B16F10, a mouse melanoma cell; experiment: Melanin production in B16F10 cells; details: mouse melanoma cell line; versus control group; FIG. 10
Protocol: (§3) Cells were cultivated according to the same process as in Experimental Example 6, and centrifuged (100×g) for 10 minutes to harvest the cells. In order to measure the production of melanin, 200 μg of the cell extract was added to 1 N NaOH (total 1 ml), allowed to stand at room temperature for 30 minutes, and then, absorbance was measured at 400 nm.
(§4) In order to measure the production of melanin, the cells were cultivated and harvested according to the same process as that of Experimental Example 6, and the production of melanin was measured according to the same process as that of Experimental Example 8.

[6] = system: tyrosinase; experiment: Expression of tyrosinase in B16F10 cells by Western blotting; details: mouse melanoma cell line; versus control group; FIG. 9
Protocol: as §2

[7] = system: Sk-mel-31, a human melanoma cell; experiment: Melanin production in Sk-mel-31 cells; details: human melanoma cell line; versus control group; FIG. 10
Protocol: as §3, §4

| Compound | tyrosinase activity [1] | cell proliferation compared with the non-treated group ([2]; 10 μg to 1 pg, FIG. 1) | cell proliferation compared with the non-treated group ([2]; 10 μg to 1 pg, FIG. 1, maximum) | cell proliferation compared with the non-treated group ([2]; each element of 10 ng, FIG. 2) | expression of tyrosinase [3] | tyrosinase activity [4] | melanin production [5] | expression of tyrosinase [6] | melanin production [7] |
| --- | --- | --- | --- | --- | --- | --- | --- | --- | --- |
| [Ce] [Ce, cerium] | increased; also recorded: substantially the same effect as mixed rare earth elements; also recorded: most greatly increased | increased | up to 1.69 times | most greatly increased | substantially the same effect; also recorded: most greatly increased | increased; also recorded: substantially the same effect as mixed rare earth elements; also recorded: most greatly increased | substantially the same effect; also recorded: most greatly increased |  |  |
| [Dy] [Dy, dysprosium] | substantially the same effect as mixed rare earth elements |  |  |  | substantially the same effect | substantially the same effect as mixed rare earth elements | substantially the same effect | substantially the same effect | substantially the same effect |
| [Er] [Er, erbium] | substantially the same effect as mixed rare earth elements |  |  |  | substantially the same effect | substantially the same effect as mixed rare earth elements | substantially the same effect | substantially the same effect | substantially the same effect |
| [Ho] [Ho, holmium] | substantially the same effect as mixed rare earth elements |  |  |  | substantially the same effect | substantially the same effect as mixed rare earth elements | substantially the same effect | substantially the same effect | substantially the same effect |
| [Pm] [Pm, promethium] | substantially the same effect as mixed rare earth elements |  |  |  | substantially the same effect | substantially the same effect as mixed rare earth elements | substantially the same effect | substantially the same effect | substantially the same effect |
| [Pr] [Pr, praseodymium] | substantially the same effect as mixed rare earth elements |  |  |  | substantially the same effect | substantially the same effect as mixed rare earth elements | substantially the same effect | substantially the same effect | substantially the same effect |
| [Sc] [Sc, scandium] | substantially the same effect as mixed rare earth elements |  |  |  | substantially the same effect | substantially the same effect as mixed rare earth elements | substantially the same effect | substantially the same effect | substantially the same effect |
| [Tb] [Tb, terbium] | substantially the same effect as mixed rare earth elements |  |  |  | substantially the same effect | substantially the same effect as mixed rare earth elements | substantially the same effect | substantially the same effect | substantially the same effect |
| [Tm] [Tm, thulium] | substantially the same effect as mixed rare earth elements |  |  |  | substantially the same effect | substantially the same effect as mixed rare earth elements | substantially the same effect | substantially the same effect | substantially the same effect |
| [Y] [Y, yttrium] | substantially the same effect as mixed rare earth elements |  |  |  | substantially the same effect | substantially the same effect as mixed rare earth elements | substantially the same effect | substantially the same effect | substantially the same effect |
| [Yb] [Yb, ytterbium] | substantially the same effect as mixed rare earth elements |  |  |  | substantially the same effect | substantially the same effect as mixed rare earth elements | substantially the same effect | substantially the same effect | substantially the same effect |
